The structures appear in SMILES notation. Read-outs that look alike come from different tables or passages of the source. Some results are limits rather than exact numbers.

One assay has as its target FGFR1 (UP) (Homo sapiens (Human), UniProt P11362). The assay can be described thus: FGFR Enzymatic Assay, FGFR1 un-phosphorylated.
Another assay concerns the target ALK2 (Homo sapiens (Human), UniProt Q04771). Description: ALK2 Cellular Assay (phospho SMAD1 HTRF, BMP-7 stimulated HeLa cells). The class given is cell-based. Particulars: read-out: ALK2 Cellular Assay PSMAD. The protocol: HeLa cells were cultured in MEM media with 10% FBS. […] HeLa cells were plated in 96 well flat bottomed plate at 50,000 cells per well and incubated overnight. Next day, media was removed and 50 μL of fresh complete media was added. 5 μL compound was added to cells (3 μM final concentration at highest) and incubated for 60 min at 37° C. 200 ng/ml BMP-7 was added and incubated for 30 min at 37° C. After incubation, the media was removed, washed 2×PBS, and proceeded with HTRF kit according to Cisbio HTRF kit instructions for measuring the Phospho SMAD1 (S463/S465). Finally, both the donor and acceptor were added into 384 well plates and incubated at room temperature overnight and the HTRF signal was measured via Pherastar the next day.

The next assay has as its target FGFR2 (P) (Homo sapiens (Human), UniProt P21802). Description: FGFR Enzymatic Assay, FGFR2 phosphorylated. To be noted: phosphorylated enzyme, ATP near or below Km.
In a further assay the target is ALK2 (aa 147-end) (Homo sapiens (Human), UniProt Q04771). Description: ALK2 HTRF Assay. Type of assay: biochemical. The procedure: The enzymatic assays were conducted in white 384-well polystyrene plates in a final volume of 8 μL. The inhibitors were serially diluted in DMSO and added to the plate wells prior to addition of the other reaction components. The assays were carried out at 25° C. in the assay buffer (50 mM HEPES, pH 7.1, 10% Glycerol, 0.01% Brij50, 10 mM MgCl2, 1 mM EGTA, 5 mM DTT, and 0.01% BSA), containing 50 nM LANCE Ultra ULight™-DNA Topoisomerase 2-alpha peptide (Perkin Elmer TRF0130), and 3 uM, 100 uM or 1 mM ATP (as specified). […] The reaction was read on a PHERAstar FS plate reader (BMG Labtech). IC50 determination was performed by fitting percent control activity versus the log of the inhibitor concentration using the IDBS XLFit and GraphPad Prism 5.0 software.

Another assay concerns the target FGFR3 (UP) (Homo sapiens (Human), UniProt P22607). Description: FGFR Enzymatic Assay, FGFR3 un-phosphorylated.
The subject of the next assay is RT112 cells. The assay can be described thus: Luminescent Viability Assay (LVA, FGFR3). Type of assay: cell-based. To be noted: Homo sapiens, RT-112, 72 h, 3 days, CellTiter-Glo. The protocol:
RT112 cells were purchased from ATCC (Manassas, Va.) and maintained in RPMI, 10% FBS (Gibco/Life Technologies). To measure the effect of test compounds on the viability of cells, the cells were plated with RPMI 10% FBS (5×10^3 cells/well/in 50 μL) into black 96-well Greiner polystyrene in the presence or absence of 50 μl of a concentration range of test compounds. After 3 days, 100 μl of CellTiter-Glo Reagent (Promega) was added. Luminescence was read with a TopCount (PerkinElmer). IC50 determination was performed by fitting the curve of percent inhibition versus the log of the inhibitor concentration using the GraphPad Prism 5.0 software.

Where [1] appears, read: read-out: FGFR1 (UP) IC50, un-phosphorylated enzyme, ATP near or below Km.
The mark [2] stands for this setting: HeLa cells, 200 ng/ml BMP-7, Phospho SMAD1 (S463/S465) HTRF.
Setting [3] is: read-out: ALK2 3 μM IC50, 3 uM ATP.
Where [4] appears, read: read-out: FGFR3 (UP) IC50, un-phosphorylated enzyme, ATP near or below Km.
Where [5] appears, read: read-out: ALK2 100 μM IC50, 100 uM ATP.

Chain of FGFR1 (UP) (P11362 22-822): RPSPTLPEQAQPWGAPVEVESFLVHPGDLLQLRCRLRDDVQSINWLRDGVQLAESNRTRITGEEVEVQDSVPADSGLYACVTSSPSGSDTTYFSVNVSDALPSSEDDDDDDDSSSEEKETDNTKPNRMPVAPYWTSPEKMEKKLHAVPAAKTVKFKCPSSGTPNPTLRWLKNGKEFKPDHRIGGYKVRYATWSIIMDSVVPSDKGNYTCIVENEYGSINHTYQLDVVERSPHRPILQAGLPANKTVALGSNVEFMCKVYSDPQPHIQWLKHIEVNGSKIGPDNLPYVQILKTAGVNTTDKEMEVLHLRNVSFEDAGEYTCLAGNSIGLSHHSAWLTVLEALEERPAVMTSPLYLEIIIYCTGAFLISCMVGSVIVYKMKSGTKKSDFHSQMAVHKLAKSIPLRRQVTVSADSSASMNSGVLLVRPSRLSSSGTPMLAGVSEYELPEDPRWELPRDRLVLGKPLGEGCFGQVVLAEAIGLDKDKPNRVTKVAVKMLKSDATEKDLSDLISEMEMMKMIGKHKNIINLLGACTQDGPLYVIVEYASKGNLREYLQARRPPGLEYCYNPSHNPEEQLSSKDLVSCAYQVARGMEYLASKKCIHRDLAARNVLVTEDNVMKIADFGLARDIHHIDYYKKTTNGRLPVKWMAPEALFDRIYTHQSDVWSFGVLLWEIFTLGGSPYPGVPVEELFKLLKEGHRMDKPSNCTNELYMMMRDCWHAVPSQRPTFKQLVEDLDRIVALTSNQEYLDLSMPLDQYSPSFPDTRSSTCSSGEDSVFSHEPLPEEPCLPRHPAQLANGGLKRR
Chain of FGFR2 (P) (P21802 22-821): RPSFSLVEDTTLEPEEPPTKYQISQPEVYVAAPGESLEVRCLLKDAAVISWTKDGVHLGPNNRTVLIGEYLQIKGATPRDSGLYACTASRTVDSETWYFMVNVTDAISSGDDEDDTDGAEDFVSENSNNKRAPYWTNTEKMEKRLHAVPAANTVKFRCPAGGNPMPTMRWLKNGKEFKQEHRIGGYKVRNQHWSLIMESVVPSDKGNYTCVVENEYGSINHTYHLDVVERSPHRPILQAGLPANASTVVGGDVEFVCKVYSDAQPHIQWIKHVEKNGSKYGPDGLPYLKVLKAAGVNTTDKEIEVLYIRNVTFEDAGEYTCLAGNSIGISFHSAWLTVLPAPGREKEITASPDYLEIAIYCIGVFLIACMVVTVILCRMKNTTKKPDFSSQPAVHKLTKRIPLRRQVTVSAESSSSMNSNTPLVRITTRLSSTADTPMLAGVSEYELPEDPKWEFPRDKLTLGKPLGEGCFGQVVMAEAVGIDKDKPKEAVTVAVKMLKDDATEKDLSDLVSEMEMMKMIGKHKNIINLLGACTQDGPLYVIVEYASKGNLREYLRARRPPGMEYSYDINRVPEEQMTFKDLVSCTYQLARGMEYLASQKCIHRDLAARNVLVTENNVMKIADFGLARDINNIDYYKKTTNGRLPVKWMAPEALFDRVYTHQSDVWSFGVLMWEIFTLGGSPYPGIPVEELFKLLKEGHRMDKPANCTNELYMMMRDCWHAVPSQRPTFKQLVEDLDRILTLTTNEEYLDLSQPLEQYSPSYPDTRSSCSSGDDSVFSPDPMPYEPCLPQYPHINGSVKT
Chain of FGFR3 (UP) (P22607 23-806): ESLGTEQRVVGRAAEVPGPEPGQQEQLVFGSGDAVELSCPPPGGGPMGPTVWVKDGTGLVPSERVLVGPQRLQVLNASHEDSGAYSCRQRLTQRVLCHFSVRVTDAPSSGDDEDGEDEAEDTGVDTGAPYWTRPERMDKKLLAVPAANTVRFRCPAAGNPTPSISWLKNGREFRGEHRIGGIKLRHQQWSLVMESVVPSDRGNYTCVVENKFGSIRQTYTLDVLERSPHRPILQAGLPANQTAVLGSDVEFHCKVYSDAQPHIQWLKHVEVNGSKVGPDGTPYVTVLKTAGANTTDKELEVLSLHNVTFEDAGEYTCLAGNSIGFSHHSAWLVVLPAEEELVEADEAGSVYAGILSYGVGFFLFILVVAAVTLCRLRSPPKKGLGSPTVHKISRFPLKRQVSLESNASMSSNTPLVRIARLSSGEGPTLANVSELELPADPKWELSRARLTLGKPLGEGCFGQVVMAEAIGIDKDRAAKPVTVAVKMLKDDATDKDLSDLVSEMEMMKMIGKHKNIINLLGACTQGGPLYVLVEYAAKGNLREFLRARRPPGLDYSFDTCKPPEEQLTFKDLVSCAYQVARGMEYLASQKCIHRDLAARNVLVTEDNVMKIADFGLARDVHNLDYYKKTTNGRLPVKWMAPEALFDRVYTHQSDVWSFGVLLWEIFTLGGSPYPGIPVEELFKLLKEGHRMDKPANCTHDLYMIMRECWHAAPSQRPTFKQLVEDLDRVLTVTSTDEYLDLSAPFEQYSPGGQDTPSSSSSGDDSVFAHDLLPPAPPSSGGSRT
Chain of ALK2 (Q04771 21-509): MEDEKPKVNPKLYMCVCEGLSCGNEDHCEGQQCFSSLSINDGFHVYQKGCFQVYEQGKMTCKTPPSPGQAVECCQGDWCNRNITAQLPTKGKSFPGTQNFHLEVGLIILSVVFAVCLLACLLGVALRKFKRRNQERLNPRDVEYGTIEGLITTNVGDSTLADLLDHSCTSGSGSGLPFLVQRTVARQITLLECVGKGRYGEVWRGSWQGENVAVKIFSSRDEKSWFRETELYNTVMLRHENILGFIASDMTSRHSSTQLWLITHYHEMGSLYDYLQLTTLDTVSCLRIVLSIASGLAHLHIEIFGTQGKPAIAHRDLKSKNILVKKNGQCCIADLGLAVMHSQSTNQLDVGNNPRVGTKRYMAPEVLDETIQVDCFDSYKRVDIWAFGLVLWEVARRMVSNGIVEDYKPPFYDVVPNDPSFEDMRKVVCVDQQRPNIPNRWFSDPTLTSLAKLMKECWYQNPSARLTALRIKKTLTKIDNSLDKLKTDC
Chain of ALK2 (aa 147-end) (Q04771 147-509): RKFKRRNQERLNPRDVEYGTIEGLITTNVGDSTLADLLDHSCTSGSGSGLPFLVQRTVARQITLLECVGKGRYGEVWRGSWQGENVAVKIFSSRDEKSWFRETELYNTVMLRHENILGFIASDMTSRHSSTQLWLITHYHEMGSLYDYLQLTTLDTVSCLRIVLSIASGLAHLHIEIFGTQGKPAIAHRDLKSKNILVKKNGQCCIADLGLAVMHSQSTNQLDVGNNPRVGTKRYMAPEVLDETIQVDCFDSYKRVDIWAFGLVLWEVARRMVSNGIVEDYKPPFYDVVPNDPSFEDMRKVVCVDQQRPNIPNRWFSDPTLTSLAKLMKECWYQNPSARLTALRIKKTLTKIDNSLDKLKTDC
Procedure for FGFR2 (P): The inhibitor potency of the exemplified compounds was determined in an enzyme discontinuous assay that measures peptide phosphorylation using FRET measurements to detect product formation. Inhibitors were serially diluted in DMSO and a volume of 0.2 μL was transferred to the wells of a 384-well plate. For the isoforms of FGFR (−1, −2, −3 wild-type and mutant isoforms, −4) including phosphorylated (P) and un-phosphorylated (UP) proteins, a 5 μL/well volume of enzyme diluted in assay buffer (50 mM HEPES, 10 mM MgCl2, 1 mM EGTA, 0.01% Tween-20, 5 mM DTT, pH 7.5) was added to the plate and pre-incubated with inhibitor for 5 to 15 minutes at ambient temperature. Appropriate controls (enzyme blank and enzyme with no inhibitor) were included on the plate. The reaction was initiated by the addition of a 5 μL/well volume containing both biotinylated [sequence] […] The plate was allowed to equilibrate for −10 minutes at ambient temperature before scanning on a PheraStar plate reader (BMG Labtech) instrument.
Either GraphPad prism or XLfit was used to analyze the data. The IC50 values were derived by fitting the data to a four parameter logistic equation producing a sigmoidal dose-response curve with a variable Hill coefficient. Prism equation: Y=Bottom+(Top−Bottom)/(1+10^((LogIC50−X)*Hill slope)); XLfit equation: Y=(A+((B−A)/(1+((X/C)^D)))) where X is the logarithm of inhibitor concentration and Y is the response.

In the case of `CC(C)C(=O)N1C[C@@H](C)N(c2ncc3[nH]nc(-c4ccc(N5CCN[C@H](C)C5)nc4)c3n2)[C@@H](C)C1` [Example 5, 1-((3R,5S)-3,5-Dimethyl-4-(3-(6-((R)-3-methylpiperazin-1-yl)pyridin-3-yl)-1H-pyrazolo[4,3-d]pyrimidin-5-yl)piperazin-1-yl)-2-methylpropan-1-one], the IC50 at FGFR1 (UP) (setting [1]) is greater than 2000 nM; at ALK2 (setting [2]), 500 to 2000 nM; on FGFR2 (P) (read-out: FGFR2 (P) IC50), greater than 2000 nM; at ALK2 (aa 147-end) (ALK2 100 μM IC50, 100 uM ATP), 100 to 500 nM; against ALK2 (aa 147-end) (ALK2 1 mM IC50, 1 mM ATP), 100 to 500 nM; at ALK2 (aa 147-end) (setting [3]), less than 100 nM. Besides, the IC50 on FGFR3 (UP) (setting [4]) was greater than 2000 nM.

As to `CC(C)NC(=O)N1C[C@@H](C)N(c2ncc3[nH]nc(-c4ccc(N5CCN[C@H](C)C5)nc4)c3n2)[C@@H](C)C1` [Example 7, (3R,5S)—N-isopropyl-3,5-dimethyl-4-(3-(6-((R)-3-methylpiperazin-1-yl)pyridin-3-yl)-1H-pyrazolo[4,3-d]pyrimidin-5-yl)piperazine-1-carboxamide], the IC50 on FGFR1 (UP) was 500 to 2000 nM; on ALK2 (setting [2]), 100 to 500 nM; at FGFR2 (P) (FGFR2 (P) IC50 (nM)) it was 500 to 2000 nM; on ALK2 (aa 147-end) (ALK2 100 μM IC50, 100 uM ATP), 100 to 500 nM; against ALK2 (aa 147-end) (ALK2 1 mM IC50, 1 mM ATP), 100 to 500 nM; at ALK2 (aa 147-end) (setting [3]) it was less than 100 nM. In addition, on FGFR3 (UP), the IC50 was 500 to 2000 nM.

Take `C[C@@H]1CN(c2ccc(-c3n[nH]c4cnc(N5[C@@H]6CC[C@H]5CN(c5ccc(C#N)cc5)C6)nc34)cn2)CCN1` [Example 15, 4-((1R,5S)-8-(3-(6-((R)-3-Methylpiperazin-1-yl)pyridin-3-yl)-1H-pyrazolo[4,3-d]pyrimidin-5-yl)-3,8-diazabicyclo[3.2.1]octan-3-yl)benzonitrile]: the IC50 at FGFR1 (UP) (setting [1]) was greater than 2000 nM; on ALK2 it was 500 to 2000 nM; on FGFR2 (P) (read-out: FGFR2 (P) IC50), greater than 2000 nM; on ALK2 (aa 147-end) (ALK2 100 μM IC50, 100 uM ATP) it was 100 to 500 nM; at ALK2 (aa 147-end) (ALK2 1 mM IC50, 1 mM ATP), 500 to 2000 nM; at ALK2 (aa 147-end) (setting [3]), less than 100 nM. The IC50 on FGFR3 (UP) (setting [4]) is greater than 2000 nM.

`C[C@@H]1CN(c2ccc(-c3n[nH]c4cnc(N5CCc6c(ncn6C)C5)nc34)cn2)CCN1` [Example 18, (R)-5-(1-Methyl-1,4,6,7-tetrahydro-5H-imidazo[4,5-c]pyridin-5-yl)-3-(6-(3-methylpiperazin-1-yl)pyridin-3-yl)-1H-pyrazolo[4,3-d]pyrimidine]: the IC50 was 100 to 500 nM at FGFR1 (UP); 100 to 500 nM at ALK2 (setting [2]); 100 to 500 nM on FGFR2 (P) (FGFR2 (P) IC50 (nM)); 100 to 500 nM against ALK2 (aa 147-end) (ALK2 1 mM IC50, 1 mM ATP); less than 100 nM at ALK2 (aa 147-end) (setting [3]); less than 100 nM at ALK2 (aa 147-end) (setting [5]). Moreover, the IC50 against FGFR3 (UP) was in the range of 100 to 500 nM.

As to `Cc1cnc2n1CCN(c1ncc3[nH]nc(-c4ccc(N5CCN[C@H](C)C5)nc4)c3n1)C2` [Example 19, (R)-5-(3-Methyl-5,6-dihydroimidazo[1,2-a]pyrazin-7(8H)-yl)-3-(6-(3-methylpiperazin-1-yl)pyridin-3-yl)-1H-pyrazolo[4,3-d]pyrimidine], the IC50 against FGFR1 (UP) is 500 to 2000 nM; at ALK2 (setting [2]), 100 to 500 nM; at FGFR2 (P) (FGFR2 (P) IC50 (nM)), 100 to 500 nM; on ALK2 (aa 147-end) (ALK2 1 mM IC50, 1 mM ATP), 100 to 500 nM; on ALK2 (aa 147-end) (setting [3]) it was less than 100 nM; at ALK2 (aa 147-end) (setting [5]), less than 100 nM. For the same compound, at FGFR3 (UP), the IC50 lay in the range of 100 to 500 nM.

Take `CCC1C(=O)N(C)CCN1c1ncc2[nH]nc(-c3cnn(C)c3)c2n1` (stereo not drawn) [Example 39, 3-Ethyl-1-methyl-4-(3-(1-methyl-1H-pyrazol-4-yl)-1H-pyrazolo[4,3-d]pyrimidin-5-yl)piperazin-2-one]: the IC50 on FGFR1 (UP) is 100 to 500 nM; with RT112 cells, 100 to 500 nM; at FGFR2 (P) (read-out: FGFR2 (P) IC50), less than 100 nM; at FGFR3 (UP) (setting [4]), less than 100 nM.

Turning to `Cn1cc(-c2n[nH]c3cnc(N4CCc5ncsc5C4)nc23)cn1` [Example 42, 5-(3-(1-Methyl-1H-pyrazol-4-yl)-1H-pyrazolo[4,3-d]pyrimidin-5-yl)-4,5,6,7-tetrahydrothiazolo[5,4-c]pyridine], the IC50 at FGFR1 (UP) was 500 to 2000 nM; with RT112 cells, 100 to 500 nM; against FGFR2 (P) (FGFR2 (P) IC50 (nM)) it was 100 to 500 nM; at FGFR3 (UP) (setting [4]), less than 100 nM.

Regarding `CC1C(=O)N(CC(F)F)CCN1c1ncc2[nH]nc(-c3cnn(C)c3)c2n1` (stereo not drawn) [Example 46, 1-(2,2-Difluoroethyl)-3-methyl-4-(3-(1-methyl-1H-pyrazol-4-yl)-1H-pyrazolo[4,3-d]pyrimidin-5-yl)piperazin-2-one], the IC50 against FGFR1 (UP) was 100 to 500 nM; in the assay with RT112 cells it was 100 to 500 nM; on FGFR2 (P) (read-out: FGFR2 (P) IC50), less than 100 nM; on FGFR3 (UP) (setting [4]) it was less than 100 nM.

For the compound `CC(C)N1CCN(c2ncc3[nH]nc(-c4cnn(C)c4)c3n2)C(C)C1=O` (stereo not drawn) [Example 47, 1-Isopropyl-3-methyl-4-(3-(1-methyl-1H-pyrazol-4-yl)-1H-pyrazolo[4,3-d]pyrimidin-5-yl)piperazin-2-one], the IC50 on FGFR1 (UP) was 500 to 2000 nM; in the assay with RT112 cells, 500 to 2000 nM; at FGFR2 (P) (FGFR2 (P) IC50 (nM)) it was 100 to 500 nM; on FGFR3 (UP) (setting [4]), less than 100 nM.

With `CN(C)C(=O)N1CCC(n2cc(-c3n[nH]c4cnc(N5C6CCC5C(=O)N(C)C6)nc34)cn2)CC1` (stereo not drawn) [Example 56, N,N-Dimethyl-4-(4-(5-(3-methyl-2-oxo-3,8-diazabicyclo[3.2.1]octan-8-yl)-1H-pyrazolo[4,3-d]pyrimidin-3-yl)-1H-pyrazol-1-yl)piperidine-1-carboxamide], the IC50 on FGFR1 (UP) was 100 to 500 nM; in the assay with RT112 cells, 500 to 2000 nM; on FGFR2 (P) (read-out: FGFR2 (P) IC50), less than 100 nM; at FGFR3 (UP) (setting [4]), less than 100 nM.

Turning to `CN1CC2CCC(C1=O)N2c1ncc2[nH]nc(-c3cnn(-c4cccnc4)c3)c2n1` (stereo not drawn) [Example 69, 3-Methyl-8-(3-(1-(pyridin-3-yl)-1H-pyrazol-4-yl)-1H-pyrazolo[4,3-d]pyrimidin-5-yl)-3,8-diazabicyclo[3.2.1]octan-2-one], the IC50 is less than 100 nM at FGFR1 (UP) (setting [1]), 100 to 500 nM with RT112 cells, less than 100 nM at FGFR2 (P) (read-out: FGFR2 (P) IC50) and less than 100 nM on FGFR3 (UP) (setting [4]).

As for `CN1CC2CCC(C1=O)N2c1ncc2[nH]nc(-c3cnn(-c4cncc(C#N)c4)c3)c2n1` (stereo not drawn) [Example 73, 5-(4-(5-(3-Methyl-2-oxo-3,8-diazabicyclo[3.2.1]octan-8-yl)-1H-pyrazolo[4,3-d]pyrimidin-3-yl)-1H-pyrazol-1-yl)nicotinonitrile], the IC50 on FGFR1 (UP) was 100 to 500 nM; with RT112 cells, 500 to 2000 nM; on FGFR2 (P) (read-out: FGFR2 (P) IC50), less than 100 nM; on FGFR3 (UP) (setting [4]) it was less than 100 nM.

For the compound `CN1CC2CCC(C1=O)N2c1ncc2[nH]nc(-c3cnn(-c4ccc(C#N)nc4)c3)c2n1` (stereo not drawn) [Example 74, 5-(4-(5-(3-Methyl-2-oxo-3,8-diazabicyclo[3.2.1]octan-8-yl)-1H-pyrazolo[4,3-d]pyrimidin-3-yl)-1H-pyrazol-1-yl)picolinonitrile], the IC50 at FGFR1 (UP) (setting [1]) is less than 100 nM; in the assay with RT112 cells it was 100 to 500 nM; on FGFR2 (P) (read-out: FGFR2 (P) IC50) it was less than 100 nM; on FGFR3 (UP) (setting [4]), less than 100 nM.

For the compound `Cc1cc(C#N)ccc1-n1cc(-c2n[nH]c3cnc(N4C5CCC4C(=O)N(C)C5)nc23)cn1` (stereo not drawn) [Example 77, 3-Methyl-4-(4-(5-(3-methyl-2-oxo-3,8-diazabicyclo[3.2.1]octan-8-yl)-1H-pyrazolo[4,3-d]pyrimidin-3-yl)-1H-pyrazol-1-yl)benzonitrile], the IC50 is 500 to 2000 nM on FGFR1 (UP), 500 to 2000 nM in the assay on RT112 cells, 100 to 500 nM against FGFR2 (P) (FGFR2 (P) IC50 (nM)) and less than 100 nM at FGFR3 (UP) (setting [4]).

In the case of `CN1CC2CCC(C1=O)N2c1ncc2[nH]nc(-c3cnn(-c4ccc(C#N)c(F)c4)c3)c2n1` (stereo not drawn) [Example 78, 2-Fluoro-4-(4-(5-(3-methyl-2-oxo-3,8-diazabicyclo[3.2.1]octan-8-yl)-1H-pyrazolo[4,3-d]pyrimidin-3-yl)-1H-pyrazol-1-yl)benzonitrile], the IC50 on FGFR1 (UP) is 100 to 500 nM; in the assay on RT112 cells it was 100 to 500 nM; at FGFR2 (P) (read-out: FGFR2 (P) IC50) it was less than 100 nM; at FGFR3 (UP) (setting [4]) it was less than 100 nM.

The values are drawn from patent US11111247B2, “Pyrazolopyrimidine compounds and uses thereof” (Incyte Corporation, priority 2018, dated 2021).
